Results: patent US11413250B2, “Shape changing drug delivery devices and methods” (Incept, LLC, priority 2015, dated 2022)

Conditions: in vivo test of Example 17
Method: The tolerability, pharmacokinetics, and pharmacodynamics of the formulations from examples 1 and 2 were evaluated in Dutch belted rabbits through 6 months. 112 eyes of naïve Dutch belted rabbits ([…]) were bilaterally dosed with either a necked fiber or a coiled fiber and were sacrificed at 1, 3 and 6 months to test for biocompatibility or pharmacokinetics.

CNC(=O)c1ccccc1Sc1ccc2c(/C=C/c3ccccn3)n[nH]c2c1 [Axitinib]
Toxicity of the delivered amounts: not toxic
